Here are results for six compounds from the supplement of paper PMC11061612.

Common to all, as to assay: combination Emax (second highest fraction inhibited in the dose matrix, 72 h); higher = more inhibition; extreme values may be limits of the assay
Assay [1] deals with AN3-CA (Endometrial Carcinoma). An outline of the steps:
(§1)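 After 24 hours at 37°C and 5% CO2 in 1536-well plates, cells in DMEM/F12 or RPMI plus 10% FBS received two-drug dose matrices for 72 hours. Viability came from CellTiter-Glo 2.0 luminescence and was scaled as inhibition, anchored at 0 by vehicle wells and at 1 by blank wells. Combination Emax is taken as the second-highest inhibition in the matrix, and Bliss excess as the observed combination effect less EA + EB − EA·EB, with EA and EB the single-agent effects.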

Assay [2] deals with Becker (Low Grade Glioma). An outline of the steps:
as §1

Assay [3] relates to CML-T1 (Chronic Myelogenous Leukemia). An outline of the steps:
as §1

Assay [4] concerns Calu-6 (Non-Small Cell Lung Carcinoma). Summed up: as §1
Another assay concerns ES-2 (Ovarian Carcinoma). Summed up: as §1
Assay [5] concerns HSC-3 (Oral Cavity Carcinoma). An outline of the steps: as §1
In another assay the test system is HuO-3N1 (Osteosarcoma). Summed up: as §1
Assay [6] relates to JHH-1 (Hepatocellular Carcinoma). Summed up: as §1
The test system of another assay is KYM-1 (Rhabdomyosarcoma). Summed up: as §1
The test system of assay [7] is KYSE-70 (Esophageal Squamous Cell Carcinoma). An outline of the steps: as §1
Assay [8] relates to LAMA-84 (Chronic Myelogenous Leukemia). Summed up:
as §1

Assay [9] relates to NCI-H1155 (Non-Small Cell Lung Carcinoma). Summed up: as §1
For assay [10], the system named is NCI-H196 (Small Cell Lung Carcinoma). An outline of the steps: as §1
The subject of assay [11] is NCI-H810 (Non-Small Cell Lung Carcinoma). Summed up:
as §1

In assay [12] the test system is OV-90 (Ovarian Carcinoma). An outline of the steps:
as §1

Assay [13] deals with PC-14 (Lung Adenocarcinoma). An outline of the steps: as §1
Assay [14] concerns RMG-I (Ovarian Carcinoma). An outline of the steps: as §1
The next assay concerns RT4 (Bladder Carcinoma). Summed up:
as §1

Assay [15] deals with SJRH30 (Rhabdomyosarcoma). An outline of the steps:
as §1

The subject of assay [16] is SK-MM-2 (Plasma Cell Myeloma). An outline of the steps:
as §1

Each structure is given as a SMILES string.

As for `NC1(C(=O)N[C@@H](CCO)c2ccc(Cl)cc2)CCN(c2ncnc3[nH]ccc23)CC1` [Capivasertib] + CC(=O)c1c(C)c2cnc(Nc3ccc(N4CCNCC4)cn3)nc2n(C2CCCC2)c1=O [Palbociclib] (first compound max 10 µM, 7x7, partner max 10 µM), the “combination Emax” value in assay [1] came to 0.803; in [2] it was 0.624; in [3] it was 0.939; in assay [4], 0.415; in the assay on ES-2 (Ovarian Carcinoma), 0.72; in [5] it was 0.78. The “combination Emax” value stood at 0.432 in the assay on HuO-3N1 (Osteosarcoma); 0.143 in assay [6]; 0.85 in the assay on KYM-1 (Rhabdomyosarcoma); 0.377 in [7]; 0.558 in assay [8]; 0.566 in [9]. For the same compound, the “combination Emax” value in [10] turned out to be 0.258; in assay [11] it was 0.141; in assay [12], 0.305; in [13], 0.582; in assay [14], 0.288; in the assay on RT4 (Bladder Carcinoma), 0.362. Also, the “combination Emax” value in [15] was 0.794; in assay [16] it was 0.409.
Take `NC1(C(=O)N[C@@H](CCO)c2ccc(Cl)cc2)CCN(c2ncnc3[nH]ccc23)CC1` [Capivasertib] + CC(C)n1c(=O)n(C)c2cnc3cc(F)c(-c4ccc(OCCCN5CCCCC5)nc4)cc3c21 [AZD1390] (first compound max 10 µM, 7x7, partner max 0.3 µM): the “combination Emax” value in [1] was 0.756; in assay [2], 0.522; in assay [3], 0.656; in assay [4], 0.222; in the assay with ES-2 (Ovarian Carcinoma), 0.257; in assay [5], 0.608. The “combination Emax” value turned out to be 0.46 in the assay on HuO-3N1 (Osteosarcoma); 0.169 in assay [6]; 0.52 with KYM-1 (Rhabdomyosarcoma); 0.259 in [7]; 0.328 in assay [8]; 0.357 in [9]. Moreover, the “combination Emax” value in assay [10] was 0.267; in assay [11], 0.166; in assay [12], 0.284; in assay [13], 0.392; in assay [14], 0.292; in the assay on RT4 (Bladder Carcinoma), 0.0517. The “combination Emax” value in [15] was 0.701; in [16], 0.243.
Take `NC1(C(=O)N[C@@H](CCO)c2ccc(Cl)cc2)CCN(c2ncnc3[nH]ccc23)CC1` [Capivasertib] + CCN(CCO)CCCOc1ccc2c(Nc3cc(CC(=O)Nc4cccc(F)c4)[nH]n3)ncnc2c1 [AZD2811] (first compound max 10 µM, 7x7, partner max 1 µM): the “combination Emax” value in assay [1] amounted to 0.786; in assay [2], 0.535; in assay [3], 0.9; in assay [4], 0.413; with ES-2 (Ovarian Carcinoma) it was 0.413; in [5] it was 0.689. The “combination Emax” value in the assay with HuO-3N1 (Osteosarcoma) was 0.494; in [6], 0.232; with KYM-1 (Rhabdomyosarcoma), 0.559; in assay [7], 0.272; in assay [8] it was 0.612; in [9] it was 0.864. Further, the “combination Emax” value in assay [10] came to 0.358; in [11], 0.534; in assay [12] it was 0.364; in [13], 0.505; in [14], 0.315; in the assay with RT4 (Bladder Carcinoma), 0.457. Besides, the results for the “combination Emax” value in assay [15] and in assay [16] were 0.734 and 0.239, respectively.
In the case of `NC1(C(=O)N[C@@H](CCO)c2ccc(Cl)cc2)CCN(c2ncnc3[nH]ccc23)CC1` [Capivasertib] + COc1nnc2ccc(N3CCC(c4ccc(OCCN5CCN(C)C(=O)[C@H]5C)cc4)CC3)nn12 [AZD5153] (first compound max 10 µM, 7x7, partner max 1 µM), the “combination Emax” value amounted to 0.75 in assay [1]; 0.593 in [2]; 0.703 in assay [3]; 0.461 in [4]; 0.766 in the assay with ES-2 (Ovarian Carcinoma); 0.861 in assay [5]. Also, the “combination Emax” value was 0.481 in the assay on HuO-3N1 (Osteosarcoma); 0.378 in [6]; 0.874 in the assay with KYM-1 (Rhabdomyosarcoma); 0.358 in assay [7]; 0.907 in assay [8]; 0.822 in assay [9]. The “combination Emax” value in assay [10] was 0.326; in [11], 0.582; in [12] it was 0.596; in assay [13], 0.638; in [14], 0.456; in the assay with RT4 (Bladder Carcinoma), 0.457. The “combination Emax” value came to 0.876 in assay [15] and 0.887 in assay [16].
Turning to `NC1(C(=O)N[C@@H](CCO)c2ccc(Cl)cc2)CCN(c2ncnc3[nH]ccc23)CC1` [Capivasertib] + C[C@@H]1COCCN1C2=NC(=NC(=C2)C3(CC3)[S@](=N)(=O)C)C4=C5C=CNC5=NC=C4 [AZD6738] (first compound max 10 µM, 7x7, partner max 10 µM), the “combination Emax” value amounted to 0.849 in assay [1]; 0.747 in assay [2]; 0.988 in assay [3]; 0.792 in assay [4]; 0.86 with ES-2 (Ovarian Carcinoma); 0.764 in assay [5]. In addition, the “combination Emax” value in the assay on HuO-3N1 (Osteosarcoma) stood at 0.592; in assay [6], 0.409; in the assay on KYM-1 (Rhabdomyosarcoma), 0.969; in [7], 0.377; in assay [8], 0.941; in [9], 0.816. Also, the “combination Emax” value is 0.408 in assay [10]; 0.648 in assay [11]; 0.614 in assay [12]; 0.854 in assay [13]; 0.385 in [14]; 0.577 in the assay with RT4 (Bladder Carcinoma). For the same compound, the entries for the “combination Emax” value in assay [15] and in assay [16] were 0.89 and 0.302, respectively.
As to `NC1(C(=O)N[C@@H](CCO)c2ccc(Cl)cc2)CCN(c2ncnc3[nH]ccc23)CC1` [Capivasertib] + Cn1cnc2c(F)c(Nc3ccc(Br)cc3Cl)c(C(=O)NOCCO)cc21 [Selumetinib] (first compound max 10 µM, 7x7, partner max 10 µM), the “combination Emax” value is 0.815 in [1]; 0.65 in assay [2]; 0.828 in assay [3]; 0.707 in assay [4]; 0.616 in the assay on ES-2 (Ovarian Carcinoma); 0.786 in assay [5]. For the same compound, the “combination Emax” value in the assay with HuO-3N1 (Osteosarcoma) was 0.439; in assay [6], 0.295; with KYM-1 (Rhabdomyosarcoma), 0.52; in [7], 0.374; in [8], 0.977; in assay [9], 0.473. Also, the “combination Emax” value came to 0.281 in [10]; 0.139 in assay [11]; 0.627 in assay [12]; 0.834 in [13]; 0.392 in [14]; 0.45 in the assay on RT4 (Bladder Carcinoma). Besides, the “combination Emax” value stood at 0.769 in assay [15] and 0.36 in assay [16].
